The text below walks through data of ChEMBL document CHEMBL4229463, “Regio- and stereospecific synthesis of rac-carbasugar-based cyclohexane pentols; Investigations of their α- and β-glucosidase inhibitions” (Bioorg Med Chem, 2018).

Test [1] deals with Saccharomyces cerevisiae. The experiment in a line: Inhibition of Saccharomyces cerevisiae alpha-glucosidase at 10 uM using PNPG as substrate after 3 mins by UV-vis spectrophotometric method relative to control.
Test [2] deals with Saccharomyces cerevisiae. The experiment in a line: Inhibition of Saccharomyces cerevisiae alpha-glucosidase at 20 uM using PNPG as substrate after 3 mins by UV-vis spectrophotometric method relative to control.
Test [3] has as its system Saccharomyces cerevisiae. The experiment in a line: Inhibition of Saccharomyces cerevisiae alpha-glucosidase at 40 uM using PNPG as substrate after 3 mins by UV-vis spectrophotometric method relative to control.
Test [4] has as its system Saccharomyces cerevisiae. The experiment in a line: Inhibition of Saccharomyces cerevisiae alpha-glucosidase at 60 uM using PNPG as substrate after 3 mins by UV-vis spectrophotometric method relative to control.
For test [5], the system named is Saccharomyces cerevisiae. The experiment in a line: Inhibition of Saccharomyces cerevisiae alpha-glucosidase at 80 uM using PNPG as substrate after 3 mins by UV-vis spectrophotometric method relative to control.
Test [6] has as its system Saccharomyces cerevisiae. Nature of the test: Inhibition of Saccharomyces cerevisiae alpha-glucosidase at 120 uM using PNPG as substrate after 3 mins by UV-vis spectrophotometric method relative to control.
Test [7] can be described thus: Inhibition of Saccharomyces cerevisiae alpha-glucosidase using PNPG as substrate after 3 mins by UV-vis spectrophotometric method.
Test [8] concerns Prunus dulcis. The experiment in a line: Inhibition of almond beta-glucosidase at 10 uM using PNPG as substrate after 3 mins by UV-vis spectrophotometric method relative to control.
For test [9], the system named is Prunus dulcis. Nature of the test: Inhibition of almond beta-glucosidase at 20 uM using PNPG as substrate after 3 mins by UV-vis spectrophotometric method relative to control.
For test [10], the system named is Prunus dulcis. Nature of the test: Inhibition of almond beta-glucosidase at 40 uM using PNPG as substrate after 3 mins by UV-vis spectrophotometric method relative to control.
Test [11] has as its system Prunus dulcis. The experiment in a line: Inhibition of almond beta-glucosidase at 60 uM using PNPG as substrate after 3 mins by UV-vis spectrophotometric method relative to control.
The test system of test [12] is Prunus dulcis. The experiment in a line: Inhibition of almond beta-glucosidase at 80 uM using PNPG as substrate after 3 mins by UV-vis spectrophotometric method relative to control.
Test [13] concerns Prunus dulcis. Nature of the test: Inhibition of almond beta-glucosidase at 120 uM using PNPG as substrate after 3 mins by UV-vis spectrophotometric method relative to control.
Test [14] is described as follows: Inhibition of almond beta-glucosidase using PNPG as substrate after 3 mins by UV-vis spectrophotometric method. Also noted: species or system Prunus dulcis.

`C[C@H]1O[C@H](O[C@H]2[C@H](O)[C@@H](O)[C@@H](O[C@H]3[C@H](O)[C@@H](O)C(O)O[C@@H]3CO)O[C@@H]2CO)[C@H](O)[C@@H](O)[C@@H]1N[C@H]1C=C(CO)[C@@H](O)[C@H](O)[C@H]1O` (some centres undefined) [ACARBOSE]: the inhibition with Saccharomyces cerevisiae [1] came to 22.8%; with Saccharomyces cerevisiae [2] it was 30%; in the test with Saccharomyces cerevisiae [3], 33%; with Saccharomyces cerevisiae [4] it was 46%; with Saccharomyces cerevisiae [5], 60%; with Saccharomyces cerevisiae [6], 78%. Moreover, the inhibition came out at 17% in the test with Prunus dulcis [8]; 25% with Prunus dulcis [9]; 40% in the test with Prunus dulcis [10]; 52% in the test with Prunus dulcis [11]; 58% in the test with Prunus dulcis [12]; 68% with Prunus dulcis [13]. Besides, the half-maximal inhibitory concentration (IC50) in [7] is 52.2 µM; in test [14], 55.9 µM.
As for `OC[C@H]1C[C@H](O)[C@@H](Cl)[C@H](O)[C@H]1CO` (racemic), the inhibition in the test with Saccharomyces cerevisiae [1] was 3.98%; in the test with Saccharomyces cerevisiae [2], 7.9%; in the test with Saccharomyces cerevisiae [3] it was 20.4%; in the test on Saccharomyces cerevisiae [4], 23%; in the test on Saccharomyces cerevisiae [5], 34.8%; in the test with Saccharomyces cerevisiae [6] it was 56.4%. Also, the inhibition stood at 2.49% in the test on Prunus dulcis [8]; 11.7% with Prunus dulcis [9]; 18.4% in the test on Prunus dulcis [10]; 21.1% in the test on Prunus dulcis [11]; 24.6% with Prunus dulcis [12]; 26.4% with Prunus dulcis [13]. In addition, the half-maximal inhibitory concentration (IC50) in test [7] is 155 µM.
`OC[C@H]1C[C@@H](O)[C@H](O)[C@@H](O)[C@H]1CO` (racemic): the inhibition came to 10.4% with Saccharomyces cerevisiae [1]; 12.1% with Saccharomyces cerevisiae [2]; 22.5% in the test with Saccharomyces cerevisiae [3]; 25.3% in the test with Saccharomyces cerevisiae [4]; 33.6% in the test with Saccharomyces cerevisiae [5]; 44.6% in the test on Saccharomyces cerevisiae [6]. The inhibition stood at 3.74% with Prunus dulcis [8]; 5.22% in the test on Prunus dulcis [9]; 25.1% in the test with Prunus dulcis [10]; 30.8% in the test with Prunus dulcis [11]; 33.8% in the test with Prunus dulcis [12]; 36.8% in the test with Prunus dulcis [13].
Consider `OC[C@H]1C[C@H](Cl)[C@@H](O)[C@H](O)[C@H]1CO` (racemic), for which the inhibition in the test on Saccharomyces cerevisiae [1] came out at 12.2%; in the test with Saccharomyces cerevisiae [2], 13.3%; in the test on Saccharomyces cerevisiae [3] it was 15%; in the test on Saccharomyces cerevisiae [4], 26.1%; in the test on Saccharomyces cerevisiae [5], 38%; with Saccharomyces cerevisiae [6] it was 55%. Further, the inhibition came to 1.99% in the test on Prunus dulcis [8]; 5.2% in the test on Prunus dulcis [9]; 19.1% with Prunus dulcis [10]; 20.6% in the test on Prunus dulcis [11]; 24.1% in the test with Prunus dulcis [12]; 32.3% in the test on Prunus dulcis [13]. The compound also returned an IC50 in test [7] of 176 µM.
Take `OC[C@H]1C[C@H](O)[C@H](O)[C@@H](O)[C@H]1CO` (racemic): the inhibition in the test on Saccharomyces cerevisiae [1] came to 3.42%; with Saccharomyces cerevisiae [2], 5.59%; in the test with Saccharomyces cerevisiae [3] it was 7.93%; in the test with Saccharomyces cerevisiae [4], 8.21%; in the test with Saccharomyces cerevisiae [5], 9.5%; in the test with Saccharomyces cerevisiae [6] it was 16.3%. Further, the inhibition with Prunus dulcis [10] was determined as 2%; in the test on Prunus dulcis [11] it was 4.29%; in the test on Prunus dulcis [12] it was 12.9%; in the test on Prunus dulcis [13] it was 23%.
With `OC[C@H]1C[C@H](O)[C@@H](O)[C@H](O)[C@H]1CO` (racemic), the inhibition in the test with Saccharomyces cerevisiae [1] worked out at 2.13%; with Saccharomyces cerevisiae [2] it was 3.6%; with Saccharomyces cerevisiae [3], 7.83%; with Saccharomyces cerevisiae [4], 8.5%; with Saccharomyces cerevisiae [5] it was 10.8%; with Saccharomyces cerevisiae [6], 16%. Besides, the inhibition was determined as 2.24% in the test with Prunus dulcis [8]; 5.97% with Prunus dulcis [9]; 10.9% in the test on Prunus dulcis [10]; 15.4% in the test on Prunus dulcis [11]; 17.7% with Prunus dulcis [12]; 17.4% in the test on Prunus dulcis [13].
